The term IC50 denotes the concentration needed to halve the response being measured. Low readings indicate greater potency, high ones weaker potency.

Bridge positions count the residues as written; N and C are the ends. Square brackets hold non-standard residues; d marks the D form. Side chains are listed from the residue outwards. Peptide text beside a SMILES is read from it. * marks the point of attachment. ξ: configuration not given here. Acetyl(2-S-3ξ-cholesteryl) = CC(C)CCC[C@@H](C)[C@H]1CC[C@H]2[C@@H]3CC=C4CC(SCC(=O)*)CC[C@]4(C)[C@H]3CC[C@]12C; R8 = C=CCCCCCC[C@@](C)(N)C(=O)O; PEG4 = NCCOCCOCCOCCOCCC(=O)O; S5 = C=CCCC[C@](C)(N)C(=O)O

In the experiment the test system is wild type EBOV. As to conditions: 24 h.

Consider `CC[C@H](C)[C@H](NC(=O)[C@H](C)NC(=O)[C@H](CS)NC(=O)[C@H](CC(=O)O)NC(=O)[C@@H]1CCCN1C(=O)CNC(=O)[C@H](CC(C)C)NC(=O)[C@@H](NC(=O)[C@H](Cc1c[nH]cn1)NC(=O)[C@H](CS)NC(=O)[C@@H](NC(C)=O)[C@@H](C)O)[C@@H](C)CC)C(=O)N[C@@H](CCC(=O)O)C(=O)N1CCC[C@H]1C(=O)N[C@@H](Cc1c[nH]cn1)C(=O)N[C@@H](CC(=O)O)C(=O)N[C@@H](Cc1c[nH]c2ccccc12)C(=O)N[C@H](C(=O)N[C@]1(C)CCCCCCC=CCCC[C@@](C)(C(=O)N[C@@H](CCC(N)=O)C(=O)N[C@H](C(=O)N[C@H](C(=O)N[C@@H](Cc2c[nH]cn2)C(=O)N[C@@H](CC(=O)O)C(=O)N[C@@H](Cc2ccccc2)C(=O)N[C@H](C(=O)N[C@@H](CCCCNC(=O)CCOCCOCCOCCOCCNC(=O)CSC2CC[C@@]3(C)C(=CC[C@H]4[C@@H]5CC[C@H]([C@H](C)CCCC(C)C)[C@@]5(C)CC[C@@H]43)C2)C(N)=O)C(C)C)[C@@H](C)CC)[C@@H](C)CC)NC(=O)[C@H]([C@@H](C)CC)NC(=O)[C@H](CCCCN)NC(=O)[C@H](CC(=O)O)NC(=O)[C@H]([C@@H](C)O)NC(=O)[C@H]([C@@H](C)CC)NC(=O)[C@H](CC(N)=O)NC1=O)[C@@H](C)O` (stereo partly shown) [SEQ ID NO:22, TCHILGPDCAIEPHDWT8NITDKIXQIIHDFV*] (Ac-TCHILGPDCAIEPHDWT[R8]NITDKI[S5]QIIHDFVK([PEG4-Acetyl(2-S-3ξ-cholesteryl)])-NH2; staple 18-25), for which the IC50 is roughly 1.5 µM.

Values taken from patent publication US20250288658A1 (priority 2022, published 2025).
